# What was measured:
# [1] = test system: SK-N-BE(2)-C cells; experiment: Colony formation assay in neuroblastoma cells; assay type: cell-based, human; settings: 5 and 10 μM, treatment 96 h, then 6 days without treatment
# Method: In order to measure the functional consequence of HDAC8 inhibition, two different cell lines were used: SK-N-BE(2)-C cells, which display MYCN amplification and non-functional p53; and IMR-32 cells having p53 wild type, which both respond with growth arrest and signs of neuronal differentiation upon knockdown or selective inhibition of HDAC8. Growth arrest was determined by colony formation and viability assays. Cells were treated with 5 and 10 μM of each of the CRBN_ based HDAC8 PROTACs having a triazole linker (CRBN_1d, CRBN_1e, CRBN_1f) for 96 h, followed by culturing for another 6 days without treatment (Figure 5A). This assesses whether the treatment impairs the clonogenic growth capacity of tumor cells, indicating effectiveness of compounds on the survival and proliferation of tumor cells.
# In six-well plates, 500 cells were seeded and treated as indicated. Viable colonies were stained after a minimum of 10 days with crystal violet. For quantification, the mean intensity of each well of the 8-bit binary picture was measured with ImageJ software (U. S. National Institutes of Health, Bethesda, MD, USA; http://imagej.nih.gov/ij/ (accessed on 1 March 2022)).
# Figure 5 (A) Neuroblastoma SK-N-BE(2)-C cells; Colony Assay, 10 days (compound treatment within first 96 h). Stained with crystal violet and quantified with ImageJ. (B,C) Trypan Blue assay for detection of dead cells. Neuroblastoma IMR-32 cells were either treated with 5 µM (B) or 10 µM (C). (D,E) Cell proliferation assessed via counting of viable cells. IMR-32 cells were either treated with 5 µM (D) or 10 µM (E) PROTACs. HDAC8i PCI-34501 served as a positive control, untreated (MEM) and solvent (DMSO) treated cells served as negative controls.
# [2] = target: T1, HDAC8 (Homo sapiens, UniProt Q9BY41); experiment: In vitro HDAC8 activity assay (Fluor de Lys-HDAC8); assay type: biochemical; parameters: made in house; settings: for IC50: Table 1, PROTACs
# T1 sequence (Q9BY41 1-377): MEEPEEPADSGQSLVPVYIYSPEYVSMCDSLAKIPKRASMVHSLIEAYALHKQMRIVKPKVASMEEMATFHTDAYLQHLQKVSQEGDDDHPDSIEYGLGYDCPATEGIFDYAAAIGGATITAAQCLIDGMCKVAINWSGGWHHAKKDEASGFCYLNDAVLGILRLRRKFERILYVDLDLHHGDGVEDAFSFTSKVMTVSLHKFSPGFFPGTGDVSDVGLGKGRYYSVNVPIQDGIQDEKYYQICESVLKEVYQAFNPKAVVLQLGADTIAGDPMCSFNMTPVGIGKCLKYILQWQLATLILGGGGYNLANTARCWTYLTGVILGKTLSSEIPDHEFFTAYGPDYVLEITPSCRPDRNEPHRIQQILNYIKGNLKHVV
# Method: Recombinant hHDAC8 was produced by Romier et al. in Strasbourg. The HDAC8 activity assays were performed according to the commercial HDAC8 Fluorometric Drug Discovery Kit (Fluor de Lys(R)-HDAC8, BML-KI178) corresponding to the instructions of the manufacturer. As substrate a tetrapeptide connected to aminomethylcoumarin (AMC) H2N-Arg- His-Lys(Ac)-Lys(Ac)-AMC was synthesized as previously described. The enzyme was incubated for 90 min at 37 °C, with a substrate concentration of 50 µM and increasing concentrations of inhibitors. The stop-solution-containing inhibitor was added to stop the hHDAC8 activity, and Trypsin was added to release the AMC. The solution was incubated for 20 min at 37 °C to develop the assay.
# (§1) Inhibition was measured at increasing concentration and IC50 was calculated by nonlinear regression with Origin 9.0G software.
# [3] = target: HDAC1 (Homo sapiens, UniProt Q13547); experiment: In vitro HDAC inhibitory activity assay, recombinant HDAC1 (fluorogenic substrate ZMAL); assay type: biochemical; parameters: purchased BPS Biosciences
# Method: (§2) The in vitro testing on recombinant HDACs was performed as previously described. Recombinant human HDAC1 and −6 were purchased from BPS Biosciences. The enzyme inhibition was determined by using a reported homogenous fluorescence assay. […] Fluorescence intensity was measured at an excitation wavelength of 390 nm and an emission wavelength of 460 nm in a microtiter plate reader (BMG Polarstar).
# as §1
# [4] = target: T2, HDAC6 (Homo sapiens, UniProt Q9UBN7); experiment: In vitro HDAC inhibitory activity assay, recombinant HDAC6 (fluorogenic substrate ZMAL); assay type: biochemical; parameters: purchased BPS Biosciences
# T2 sequence (Q9UBN7 1-1215): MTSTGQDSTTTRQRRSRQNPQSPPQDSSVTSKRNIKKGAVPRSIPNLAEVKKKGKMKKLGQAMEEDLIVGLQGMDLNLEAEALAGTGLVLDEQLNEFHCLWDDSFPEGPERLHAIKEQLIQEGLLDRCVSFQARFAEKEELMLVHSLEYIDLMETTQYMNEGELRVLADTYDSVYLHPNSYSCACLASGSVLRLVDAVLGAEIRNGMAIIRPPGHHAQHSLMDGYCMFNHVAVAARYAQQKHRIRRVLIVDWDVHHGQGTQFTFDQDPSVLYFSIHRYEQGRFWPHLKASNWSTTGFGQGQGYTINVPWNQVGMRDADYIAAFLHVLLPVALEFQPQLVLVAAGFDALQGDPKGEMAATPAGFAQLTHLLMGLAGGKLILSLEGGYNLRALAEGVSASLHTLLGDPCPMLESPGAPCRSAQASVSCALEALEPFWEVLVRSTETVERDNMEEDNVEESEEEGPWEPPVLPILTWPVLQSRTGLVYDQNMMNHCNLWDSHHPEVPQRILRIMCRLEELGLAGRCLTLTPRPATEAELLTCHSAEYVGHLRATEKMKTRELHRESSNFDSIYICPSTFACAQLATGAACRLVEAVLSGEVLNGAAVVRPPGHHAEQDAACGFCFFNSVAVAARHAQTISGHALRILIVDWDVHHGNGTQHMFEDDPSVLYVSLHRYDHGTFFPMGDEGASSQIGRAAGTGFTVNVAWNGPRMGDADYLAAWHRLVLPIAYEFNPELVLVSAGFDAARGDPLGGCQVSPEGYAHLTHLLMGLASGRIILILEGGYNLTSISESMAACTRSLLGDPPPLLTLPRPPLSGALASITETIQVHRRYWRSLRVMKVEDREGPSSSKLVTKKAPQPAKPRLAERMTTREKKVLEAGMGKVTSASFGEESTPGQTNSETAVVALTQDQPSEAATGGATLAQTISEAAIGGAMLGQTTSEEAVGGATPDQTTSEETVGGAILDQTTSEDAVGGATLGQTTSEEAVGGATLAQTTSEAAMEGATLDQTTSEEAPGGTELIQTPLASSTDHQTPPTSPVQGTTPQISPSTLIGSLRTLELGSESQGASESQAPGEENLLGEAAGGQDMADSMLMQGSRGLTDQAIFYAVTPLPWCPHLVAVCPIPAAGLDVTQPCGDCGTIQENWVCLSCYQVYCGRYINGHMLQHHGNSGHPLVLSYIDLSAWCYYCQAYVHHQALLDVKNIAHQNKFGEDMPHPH
# Method: as §2, §1
# HDAC1, sequence (Q13547 whole entry): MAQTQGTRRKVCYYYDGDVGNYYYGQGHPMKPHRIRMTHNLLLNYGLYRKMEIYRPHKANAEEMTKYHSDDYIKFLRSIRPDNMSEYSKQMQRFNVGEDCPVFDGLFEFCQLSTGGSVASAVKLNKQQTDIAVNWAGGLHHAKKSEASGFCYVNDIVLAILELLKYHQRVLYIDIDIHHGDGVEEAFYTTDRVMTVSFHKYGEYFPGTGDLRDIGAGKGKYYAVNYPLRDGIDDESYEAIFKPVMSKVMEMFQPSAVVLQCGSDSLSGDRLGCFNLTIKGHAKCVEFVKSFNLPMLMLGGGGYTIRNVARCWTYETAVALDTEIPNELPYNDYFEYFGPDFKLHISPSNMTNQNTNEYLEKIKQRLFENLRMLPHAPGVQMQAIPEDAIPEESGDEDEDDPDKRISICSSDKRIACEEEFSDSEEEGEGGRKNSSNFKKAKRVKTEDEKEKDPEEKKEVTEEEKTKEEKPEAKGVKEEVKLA
"inhibition at 1 µM ([3]; 1 µM, read-out: HDAC1 % inhib. at given conc.)","inhibition at 10 µM ([3]; 10 µM, read-out: HDAC1 % inhib. at given conc.)","inhibition at 1 µM ([4]; 1 µM, read-out: HDAC6 % inhib. at given conc.)","inhibition at 10 µM ([4]; 10 µM, read-out: HDAC6 % inhib. at given conc.)",SMILES,Effect on colony formation [1],HDAC8 inhibitory activity ([2]; negative control),HDAC1 inhibitory activity ([3]; negative control),HDAC6 inhibitory activity ([4]; negative control),IC50 [2],"SI (HDAC6/HDAC8) ([2]; selectivity index, HDAC6 over HDAC8)",IC50 [3],IC50 [4]
–,–,–,–,COC(=O)c1ccc(C)c(NCc2ccc(OCc3cn(CCCCCC(=O)Nc4cccc5c4C(=O)N(C4CCC(=O)NC4=O)C5=O)nn3)cc2)c1 (stereo not drawn) [33a],inactive,did not demonstrate a strong inhibitory activity,did not demonstrate a strong inhibitory activity,did not demonstrate a strong inhibitory activity,–,–,–,–
–,–,–,–,COc1ccc(C(=O)NO)cc1NC(=O)c1ccc(NC(=O)CCCCCCCNc2cccc3c2C(=O)N(C2CCC(=O)NC2=O)C3=O)cc1 (stereo not drawn) [CRBN_1b],significantly decreased the ability to form colonies,–,–,–,810 ± 170 nM,0.7,> 20000 nM,560 ± 100 nM
2.3%,40%,12.4%,72.8%,O=C(COc1ccc(CNc2cc(C(=O)NO)ccc2Cl)cc1)NCCCCCNC(=O)CC12CC3CC(CC(C3)C1)C2 [HyT_1p],significantly decreased the ability to form colonies,–,–,–,750 ± 90 nM,–,–,–
